How the values were obtained:
Assay type in all cases: binding
Conditions in all cases: Compound Concentration 10 µM
panel of 442 kinases [1] = molecular target: T1, panel of 442 kinases (Homo sapiens, UniProt P09769)
T1 construct: purchased KINOMEscan
Description: (§1) We assessed the selectivity of members of this scaffold using the KINOMEscan methodology across a near comprehensive panel of 442 kinases [[18,27]].

panel of 442 kinases [2] = molecular target: T2, panel of 442 kinases (Homo sapiens, UniProt P29376)
T2 construct: purchased KINOMEscan
Description: as §1

panel of 442 kinases [3] = molecular target: T3, panel of 442 kinases (Homo sapiens, UniProt Q92772)
T3 construct: purchased KINOMEscan
T3 sequence (Q92772 1-493): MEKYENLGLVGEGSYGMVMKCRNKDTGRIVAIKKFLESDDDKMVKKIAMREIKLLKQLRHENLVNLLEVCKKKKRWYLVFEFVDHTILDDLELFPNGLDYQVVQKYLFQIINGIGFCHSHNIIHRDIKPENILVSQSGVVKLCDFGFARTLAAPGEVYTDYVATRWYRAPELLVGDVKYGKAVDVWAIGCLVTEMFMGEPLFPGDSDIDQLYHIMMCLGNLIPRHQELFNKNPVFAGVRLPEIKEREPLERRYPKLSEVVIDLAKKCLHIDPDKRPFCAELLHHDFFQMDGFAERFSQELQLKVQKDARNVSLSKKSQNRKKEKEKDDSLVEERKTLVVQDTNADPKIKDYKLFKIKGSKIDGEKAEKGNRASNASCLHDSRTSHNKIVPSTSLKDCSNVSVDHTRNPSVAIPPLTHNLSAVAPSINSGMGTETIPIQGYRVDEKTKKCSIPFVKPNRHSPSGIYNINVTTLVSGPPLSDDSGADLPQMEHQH
Description: as §1

T2 sequence (P29376 17-864): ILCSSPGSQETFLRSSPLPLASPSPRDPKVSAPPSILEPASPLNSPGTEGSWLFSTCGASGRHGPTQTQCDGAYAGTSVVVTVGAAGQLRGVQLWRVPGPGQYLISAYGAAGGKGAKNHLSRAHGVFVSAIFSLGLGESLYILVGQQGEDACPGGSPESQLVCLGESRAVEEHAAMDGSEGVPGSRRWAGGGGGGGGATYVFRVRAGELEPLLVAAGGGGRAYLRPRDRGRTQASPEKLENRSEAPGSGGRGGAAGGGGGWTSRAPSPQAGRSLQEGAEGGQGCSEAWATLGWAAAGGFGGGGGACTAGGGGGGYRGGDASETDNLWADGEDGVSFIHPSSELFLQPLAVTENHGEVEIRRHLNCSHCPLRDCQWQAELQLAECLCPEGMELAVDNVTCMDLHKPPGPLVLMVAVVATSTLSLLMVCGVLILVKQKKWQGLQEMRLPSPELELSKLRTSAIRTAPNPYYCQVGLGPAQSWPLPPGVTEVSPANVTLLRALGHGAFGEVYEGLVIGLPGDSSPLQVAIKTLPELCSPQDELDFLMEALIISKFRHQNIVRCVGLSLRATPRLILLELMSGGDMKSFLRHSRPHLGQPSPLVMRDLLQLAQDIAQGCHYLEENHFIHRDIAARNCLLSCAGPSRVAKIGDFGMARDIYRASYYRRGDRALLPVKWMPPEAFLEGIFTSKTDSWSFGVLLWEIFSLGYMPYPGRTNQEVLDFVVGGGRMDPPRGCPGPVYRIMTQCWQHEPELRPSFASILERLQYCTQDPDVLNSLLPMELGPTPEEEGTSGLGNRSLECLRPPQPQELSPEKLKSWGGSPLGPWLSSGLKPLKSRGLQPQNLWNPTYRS
T1 sequence (P09769 whole entry): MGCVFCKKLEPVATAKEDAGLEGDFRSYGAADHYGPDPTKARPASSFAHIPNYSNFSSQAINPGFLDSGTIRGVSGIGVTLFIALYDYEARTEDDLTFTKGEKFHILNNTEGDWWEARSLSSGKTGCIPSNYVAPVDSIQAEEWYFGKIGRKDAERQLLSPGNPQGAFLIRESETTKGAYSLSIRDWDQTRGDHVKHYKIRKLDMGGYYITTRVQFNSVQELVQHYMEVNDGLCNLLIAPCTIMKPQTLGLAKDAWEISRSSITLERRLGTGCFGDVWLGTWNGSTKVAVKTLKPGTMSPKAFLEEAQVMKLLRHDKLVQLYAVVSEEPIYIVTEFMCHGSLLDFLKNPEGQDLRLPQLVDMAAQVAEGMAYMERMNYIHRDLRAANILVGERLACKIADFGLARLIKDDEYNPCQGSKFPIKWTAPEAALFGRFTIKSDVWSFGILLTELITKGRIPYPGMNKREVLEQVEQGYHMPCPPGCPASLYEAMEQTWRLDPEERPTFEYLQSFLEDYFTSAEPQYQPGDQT

Compound | KINOMEscan: FGR (panel of 442 kinases [1]) | KINOMEscan: LTK (panel of 442 kinases [2]) | KINOMEscan: CDKL2 (panel of 442 kinases [3])
COc1cc(C(=O)N2CCC(N3CCN(C)CC3)CC2)ccc1Nc1ncc2c(n1)N1CCc3cccc(c31)C(=O)N2C [Compound 24] | 79 | – | –
CCOc1cc(C(=O)N2CCC(N3CCN(C)CC3)CC2)ccc1Nc1ncc2c(n1)N(C1CCCC1)c1ccccc1C(=O)N2C [Compound 26] | 99 | 48 | 99
COc1cc(C(=O)N2CCC(N3CCN(C)CC3)CC2)ccc1Nc1ncc2c(n1)N(C1CCCC1)c1ccccc1C(=O)N2C [Compound 25, 11-cyclopentyl-2-((2-methoxy-4-(4-(4-methylpiperazin-1-yl)piperidine-1-carbonyl)phenyl)amino)-5-methyl-5H-benzo[e]pyrimido[5,4-b][1,4]diazepin-6(11H)-one] | 98 | 11 | 95
COc1cc(C(=O)N2CCC(N3CCN(C)CC3)CC2)ccc1Nc1ncc2c(n1)N(C)c1ccccc1C(=O)N2C [15 (LRRK2-IN-1)] | 84 | 32 | 100

— article PMC3914206
